Where two headings read alike, the source gives them in different places.
Columns and labels:
[1] = biological target: T1, FLT3 receptor (MV4-11 cell line bearing an FLT3ITD mutant) (Homo sapiens, UniProt P36888, INS600HVDFREYEYD); test: Inhibition of FLT3 receptor tyrosine kinase activity: proliferation of MV4-11 cells (CellTiter-Glo, 72 h); type: cell-based; conditions: 72 hours incubation, read-out: IC50 (concentration that inhibits 50% of the proliferation of the MV4-11 cells)
T1 construct: MV4-11 cell line, which line is established from a leukaemia of constitutively active AML type bearing an FLT3ITD mutant; endogenous in cells; host or cells: MV4-11
T1 sequence (P36888 with tags, fused parts or gaps INS600HVDFREYEYD): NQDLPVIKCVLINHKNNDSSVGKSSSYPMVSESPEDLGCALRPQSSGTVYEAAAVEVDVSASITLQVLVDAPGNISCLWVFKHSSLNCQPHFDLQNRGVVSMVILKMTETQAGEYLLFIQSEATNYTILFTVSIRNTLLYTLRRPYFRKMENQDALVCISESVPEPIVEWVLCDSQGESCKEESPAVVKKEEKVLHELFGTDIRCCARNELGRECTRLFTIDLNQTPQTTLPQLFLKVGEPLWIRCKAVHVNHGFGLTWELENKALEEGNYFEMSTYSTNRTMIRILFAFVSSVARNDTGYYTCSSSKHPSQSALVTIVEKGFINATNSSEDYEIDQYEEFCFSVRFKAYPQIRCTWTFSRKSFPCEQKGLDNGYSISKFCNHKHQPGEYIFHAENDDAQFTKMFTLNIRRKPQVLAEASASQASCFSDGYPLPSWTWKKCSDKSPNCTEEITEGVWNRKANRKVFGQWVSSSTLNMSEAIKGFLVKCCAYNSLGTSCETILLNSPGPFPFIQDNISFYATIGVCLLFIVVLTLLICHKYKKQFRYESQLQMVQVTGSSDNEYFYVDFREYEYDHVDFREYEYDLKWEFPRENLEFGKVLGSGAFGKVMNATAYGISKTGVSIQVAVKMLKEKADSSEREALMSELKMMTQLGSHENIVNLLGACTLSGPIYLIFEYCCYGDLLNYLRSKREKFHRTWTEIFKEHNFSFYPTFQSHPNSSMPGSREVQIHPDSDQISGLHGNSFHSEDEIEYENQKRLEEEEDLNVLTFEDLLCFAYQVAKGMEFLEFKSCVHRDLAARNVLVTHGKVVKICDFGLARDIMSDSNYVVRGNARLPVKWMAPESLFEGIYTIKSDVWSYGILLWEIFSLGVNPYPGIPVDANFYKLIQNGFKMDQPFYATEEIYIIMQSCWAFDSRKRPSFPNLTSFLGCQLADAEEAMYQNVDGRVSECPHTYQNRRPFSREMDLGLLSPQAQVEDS
Procedure: Measurement of Inhibition of the Tyrosine Kinase Activity of the FLT3 Receptor
The inhibitory effect of the compounds according to the invention towards the tyrosine kinase activity of the FLT3 receptor was evaluated on an MV4-11 cell line, which line is established from a leukaemia of constitutively active AML type bearing an FLT3ITD mutant. The inhibitory activity is correlated to the inhibition of cell growth, according to the protocols described by Spiekermann, K. et al., Blood, 2003, 101, (4) 1494-1504 and O'Farrell, A.-M. et al., Blood, 2003, 101, (9) 3597-3605.
MV4-11 cells are washed with PBS buffer and inoculated in 96-well plates, at a density of 1×10^5 cells/ml (100 μL per well), in RPMI 1640 containing 10% FCS, in the presence or absence of the test compounds. After incubation for 72 hours, the viable cells are quantified by measuring the cellular ATP by means of the CellTiter-Glo® kit (Promega, Cat G7571). The cells are treated according to the instructions given by the kit manufacturer, and the luminescence is measured using a Luminoskan (Ascent, Labsystem) with the following parameters: measurement: single; integration time: 1000 ms, lag time: 5 s.
The inhibitory activity with respect to the FLT3 receptor is given by the concentration that inhibits 50% of the proliferation of the MV4-11 cells.

[2] = biological target: T2, fusion protein Tel/PDGF-R (PDGF-Rβ kinase domain) in HEK cells (Homo sapiens, UniProt P09619); test: Ex vivo activity: plasma of orally treated mice tested on PDGF-R autophosphorylation in HEK Tel/PDGF-R cells (ELISA); set-up: species or system female Balb/c mice; conditions: HEK293, mouse, po, 30 mg/kg po, read-out: % inhibition of autophosphorylation of PDGFR tyrosine kinase in HEK cells
T2 construct: the transmembrane and intracellular part of the PDGF-Rβ receptor; N-terminal part of the Tel transcription factor (ETV6); expressed in transfected cells; host or cells: HEK cells (transient transfection); the other entry of the earlier key: ETV6 (P41212, Transcription factor ETV6)
T2 sequence (P09619 with tags, fused parts or gaps): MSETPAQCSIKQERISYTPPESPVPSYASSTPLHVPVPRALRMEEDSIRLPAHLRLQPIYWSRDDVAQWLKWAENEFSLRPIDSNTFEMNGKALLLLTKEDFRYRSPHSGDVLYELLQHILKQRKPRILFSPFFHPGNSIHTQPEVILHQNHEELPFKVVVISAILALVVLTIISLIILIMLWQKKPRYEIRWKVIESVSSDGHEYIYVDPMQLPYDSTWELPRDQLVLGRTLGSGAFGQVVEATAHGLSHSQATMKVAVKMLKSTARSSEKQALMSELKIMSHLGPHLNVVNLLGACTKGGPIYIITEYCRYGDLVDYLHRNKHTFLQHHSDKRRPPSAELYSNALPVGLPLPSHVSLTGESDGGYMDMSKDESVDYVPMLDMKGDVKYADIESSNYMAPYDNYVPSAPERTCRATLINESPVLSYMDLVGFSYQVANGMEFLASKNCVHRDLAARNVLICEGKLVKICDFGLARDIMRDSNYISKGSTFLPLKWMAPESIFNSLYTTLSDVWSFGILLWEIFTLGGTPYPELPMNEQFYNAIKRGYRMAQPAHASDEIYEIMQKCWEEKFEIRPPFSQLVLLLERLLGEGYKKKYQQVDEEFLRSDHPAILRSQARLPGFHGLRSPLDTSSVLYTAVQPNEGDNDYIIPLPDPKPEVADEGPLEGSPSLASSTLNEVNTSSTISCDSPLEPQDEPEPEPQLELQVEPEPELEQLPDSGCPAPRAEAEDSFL
Procedure: Ex vivo activity of the compounds of the invention was measured. These compounds are thus administered orally to female Balb/c mice at a dose of 10, 30 or 100 mg/kg in suspension or in solution in a vehicle such as methylcellulose/Tween and the inhibition of the tyrosine kinase activity is measured in vitro in a cell test, using plasma collected at 15 minutes, 1 hour and 4 hours.
1) Protocol for Administration of the Products to the Mice
The products are prepared in a mortar with 0.5% Tween 80 and 0.6% methylcellulose qs final volume. Depending on the case, preparations of different vehicles may be used: water, mixture of labrasol solutol 5% glucose-water. The suspended or dissolved products are administered by gavage (10 ml/kg) to female Balb/c mice 8 to 15 weeks old.
The animals are then collected at the time given by the protocol (15 min, 1 hour, 4 hours, 16 hours).
The animals are anaesthetized by intraperitoneal injection (10 ml/kg) of a ketamine (0.1 g/kg)-xylazine (20 mg/kg) mixture. […] The blood sample is collected from the vein or the artery using a dry syringe and needle. The blood is immediately transferred into heparin lithium tubes (BD microtainer). Centrifugation for 3 minutes at 12 000 rpm allows recovery of the plasma, on which the biochemical test may be performed after storage by freezing at −20° C.
2) Preparation of the HEK Tel/PDGF-R Cells and Measurement of the Phosphorylation of PDGF-R
In order to detect the ex vivo activity of the products using the mouse plasmas, the HEK cells are transiently transfected beforehand with an expression vector coding for the fusion protein Tel/PDGF-R (fusion protein described previously). After 24 hours of transfection, the cells are deprived of serum overnight and then incubated for 30 minutes with the animal plasmas treated with the products of the invention. The cells are then lysed in RIPA buffer, and detection of the phosphorylation of PDGF-Rβ is then performed via the ELISA technique, using a commercial kit (R&D Systems, DYC1767). The results are expressed as a percentage of inhibition of the autophosphorylation.
In this test of measurement of the ex vivo activity, the effect of the compounds of the invention is quantified by the percentage of inhibition of phosphorylation of the kinase domain of the PDGF-Rβ receptor in HEK cells, induced by the inhibitory activity of the product present in the plasma of the treated animals, as described in the following table: […]

| IC50 [1] | inhibition at 30 mg/kg ([2]; plasma collected at 15 min) | inhibition at 30 mg/kg ([2]; plasma collected at 1 h) | inhibition at 30 mg/kg ([2]; plasma collected at 4 h) | SMILES |
| --- | --- | --- | --- | --- |
| 190 nM | 85% | 57% | 74% | CCN1CC(F)(F)C[C@H]1CNC(=O)Cc1ccc(-c2ccc3c(=O)c(C(=O)NC)c(N)n(CC)c3n2)cc1 [compound 24, 2-amino-1-ethyl-7-{4-[2-({[(2S)-1-ethyl-4,4-difluoropyrrolidin-2-yl]methyl}-amino)-2-oxoethyl]phenyl}-N-methyl-4-oxo-1,4-dihydro-1,8-naphthyridine-3-carboxamide] |
| 56 nM | 80% | 82% | 75% | CCn1c(N)c(C(=O)NC)c(=O)c2ccc(-c3ccc(CC(=O)NCC4COCCN4C4CC4)cc3)nc21 (centres unmarked) [compound 33, 2-amino-7-[4-(2-{[(4-cyclopropylmorpholin-3-yl)methyl]amino}-2-oxoethyl)phenyl]-1-ethyl-N-methyl-4-oxo-1,4-dihydro-1,8-naphthyridine-3-carboxamide] |

— patent US8436011B2, “Pyridinopyridinone derivatives, preparation thereof and therapeutic use thereof” (Sanofi, priority 2008, dated 2013)
